The conditions of data set [1]: cited from earlier work.
Another data set relates to HIV. Kind of data set: HIV replication in macrophage cultures, strain not named. The format is cell-based. As for the experimental part:
HIV replication: After 6 days in culture, macrophages in 48-well plates at a density of 10^5 cells per well were inoculated with 2-20 ng/ml HIVADA, 2 ng/ml HIVYU-2, or 0.2 ng/ml HIVBaL for 24 hours in the presence or absence of purinergic receptor inhibitors. 5 wells were inoculated per condition. After 24 hours, cells were washed with PBS and then cultured with media. Supernatants were collected and medium was changed every 24 hours until 7 days post inoculation (d.p.i.). When the inhibitors oATP, A-740003, MRS 2179, NF 279, BBG, or suramin, were used, they were added when the medium was changed every 24 hours. Viral replication was analyzed by HIV p24 ELISA (Advanced Bioscience Laboratories, Kensington, Md.) according to the manufacturer's instructions

The next data set has as its system Macrophages. The data set is described as follows: Cell viability of macrophages, live/dead assay. The settings on record: 100 μM, 24 hours. The format is cell-based. The source says: Cells were imaged using a Zeiss AxioObserver.D1 with an LD Plan-Neofluar 20×/0.4 air objective lens. Images were collected at room temperature through a Zeiss AxioCam MRm camera using Axiovision software.

Data set [2] has as its target T1, Panx1 hemichannels (Homo sapiens, UniProt Q96RD7). The data set is described as follows: Etd uptake in CD4+ T lymphocytes induced by chemokines or gp120. The settings on record: gp120 1 μg/ml, 5 min. On the set-up: endogenous in cells; host or cells: primary human PBMCs and purified CD4+ T lymphocytes from leukopacks (New York Blood Center). The format is cell-based. Here is the method: (§1) Dye uptake and time lapse fluorescence imaging. To characterize the functional state of Panx1 hemichannels, dye uptake experiments using ethidium (Etd) bromide were performed as previously described (18, 19). Cells were washed twice in Hank's balanced salt solution and then exposed to Locke's solution (containing: 154 mM NaCl, 5.4 mM KCl, 2.3 mM CaCl2, 5 mM HEPES and pH 7.4) with 5 μM Etd and time lapse microscopy was performed. Phase-contrast and fluorescence microscopy with time-lapse imaging were used to record cell appearance and fluorescence intensity changes in each condition. Fluorescence was recorded every 30 s. The NIH ImageJ program was used for off-line image analysis and fluorescence quantification. For data representation and calculation of Etd uptake slopes, the average of two independent background fluorescence intensity measurements (FB, expressed as arbitrary units, AU) was subtracted from fluorescence intensity′ in each cell (F1). Results of this calculation (F1-FB), for at least 20 cells, were averaged and plotted against time (expressed in minutes). Slopes were calculated using Microsoft Excel software and expressed as AU/min. Microscope and camera settings remained the same in all experiments. Dead cells were clearly identified during the time lapse microscopy due to their non specific Etd uptake (not inhibited by hemichannel blockers) and were not quantified.

Data set [3] concerns the target T1, Panx1 hemichannels. The data set is described as follows: HIV-induced ethidium (Etd) dye uptake, time lapse fluorescence imaging, in PBMCs and CD4+ T lymphocytes. The format is cell-based. Set-up: endogenous in cells; host or cells: primary human PBMCs and purified CD4+ T lymphocytes from leukopacks (New York Blood Center). Particulars: PBMCs exposed to HIVADA; CD4+ T lymphocytes exposed to HIVADA, HIVBal or HIVLAI; 5 min and 72 h; Prob 500 μM, 10Panx1 200 μM, scrPanx1 200 μM, La3+ 200 μM, Cx43E2 1:500, siRNA 10 nM. As for the experimental part: Isolation of human PBMCs and CD4+ T lymphocytes. Anticoagulated blood was obtained from leukopacks obtained from the New York Blood Center as described before (16). PBMCs were isolated by under-layering with Ficoll-Paque (Amersham Bioscience, Uppsala, Sweden) according to the procedure described by the manufacturer. Purified PBMC used in these studies were ˜10% monocytes and ˜90% lymphocytes and other hematopoietic cells, as determined by incubation with premixed human CD45 and CD14 monoclonal antibodies conjugated to FITC and PE, respectively (1:50, Caltag Laboratories, Burlingame, Calif.), followed by fluorescence-activated cell sorter analysis (FACS) as we previously described (17). To obtain a pure population of CD4+ T lymphocytes, monocytes were removed from PBMCs by using CD14 coupled magnetic beads and subsequently CD4+ T lymphocytes were isolated with CD4 coupled magnetic beads (Stem Cell Technologies, Vancouver, BC, Canada).
(§2) HIV-infection and quantification of replication. Cell-free viral inocula were obtained from the National Institutes of Health AIDS Research and Reference Reagent Program. Three isolates were used: HIVADA, and HIVBal, two R5 isolates and HIVLAI, an X4 isolate, PBMCs and purified CD4+ T lymphocytes were isolated and activated with phytohemagglutinin (PHA; 5 μg/ml) plus interleukin (IL-2; 5%) in RPMI 1640 for 48 h in polypropylene tubes at a density of 2×10^6 […] PBMCs and CD4+ T lymphocytes were then infected by incubation for 24 h with viral stocks of HIVADA (20 ng p24/ml/1×10^6 cells), HIVLAI (20 ng p24/ml/1×10^6 cells) or HIVBal (0.001 MOI), washed thoroughly, resuspended in fresh medium, and maintained in polypropylene tubes. Uninfected control cells were activated with PHA plus IL-2 for 48 h, washed, and maintained in polypropylene tubes in fresh media without any virus. To determine the levels of HIV infection, the amount of HIV-p24 released into the medium was determined by ELISA (PerkinElmer, Boston, Mass.)
as §1

The test system of another data set is HIVADA. The data set is described as follows: HIV replication in CD4+ T lymphocytes, HIV-p24 ELISA. The format is cell-based, Human immunodeficiency virus-1 (HIV). The settings on record: supernatants each day for 7 days, 10Panx1 200 μM, scrPanx1 200 μM, siRNA 10 nM. Here is the method:
as §2

Data set [4] deals with T1, Panx1 hemichannels. The data set is described as follows: HIV-induced Etd uptake in CD4+ T lymphocytes by flow cytometry (FACS). Set-up: endogenous in cells; host or cells: primary human PBMCs and purified CD4+ T lymphocytes from leukopacks (New York Blood Center). Particulars: HIVADA, 5 min and 72 h. The data set is classed as cell-based. As for the experimental part:
Flow cytometry. To measure Etd uptake in CD4+ T cell populations FACS analysis was performed of cells under control conditions or after HIV exposure at several time points. Etd uptake experiments were performed in CD4+ lymphocytes (3-5×10^5), and after the respective time of Etd uptake, cells were fixed with 2% paraformaldehyde for 30 min at room temperature, incubated with 1% BSA in PBS for 30 min and stained with CD4 antibody for 30 min at 4° C. For analyses of Etd positive populations, 10,000 events were acquired on a BD FACS Canto II and analyzed using FlowJo (Ashland, Oreg.) software as we previously described (17, 20).

The subject of data set [5] is β-lactamase containing HIVBaL. The data set is described as follows: HIV Entry Assay (β-lactamase / CCF2-AM) in primary human macrophages. The format is cell-based, Human immunodeficiency virus-1 (HIV). The settings on record: apyrase data; concentration not given. Here is the method: HIV Entry Assay: Primary human macrophages were cultured in black 96-well plates with a clear bottom (Corning Inc., Corning, N.Y.) at a density of 43,000 cells per well. After 7-8 days in culture, cells were inoculated with β-lactamase containing HIVBaL at a multiplicity of infection (MOI) of 0.01, 0.005, or 0.001 in the presence or absence of the purinergic receptor inhibitors oATP, NF 279, A-740003, or MRS 2179 for 4 hours. Beta-lactamase containing HIVBaL was generated as described previously (27). Briefly, HEK-293T cells were transfected using calcium phosphate with two plasmids, one containing the HIVBaL genome, pWT/BaL (NIH repository), the other containing β-lactamase fused to REV vpr, pMM310 (NIH repository). Cells were transfected for 16 hours and then supernatant was collected 24 and 48 hours following transfection. […] Viral stocks were generated by sucrose gradient purification of the transfection supernatants.
Alter viral inoculation of primary human macrophages, cells were washed with phenol red-free DMEM (Gibco) then loaded with CCF2-AM for 6 hours at room temperature using the GeneBLAzer In Vivo Detection Kit (Invitrogen, Carlsbad, Calif.). CCF2-AM fluoresces green due to an internal fluorescence resonance energy transfer, but when cleaved by β-lactamase, this interaction is lost and the molecule fluoresces blue. Cells were imaged using an Olympus IX70 with a Plan 10×/0.25 air objective lens. Images were collected at room temperature through an Olympus E-620LS camera attached to the microscope through an OM adapter MF-1. Images were collected directly onto a memory card and there was no image processing following image collection. Images were collected for 8 fields in 4 separate wells per condition and percentage of cells positive for viral entry was determined by counting the number of blue cells (cells that virus had entered) as compared to the total number of blue and green cells.

This is an account of results in patent publication US9540646B2, “Cellular targets for HIV infection” (priority 2012, dated 2017).

“Also recorded” adds a separate entry of the source.

T1 sequence (Q96RD7 whole entry): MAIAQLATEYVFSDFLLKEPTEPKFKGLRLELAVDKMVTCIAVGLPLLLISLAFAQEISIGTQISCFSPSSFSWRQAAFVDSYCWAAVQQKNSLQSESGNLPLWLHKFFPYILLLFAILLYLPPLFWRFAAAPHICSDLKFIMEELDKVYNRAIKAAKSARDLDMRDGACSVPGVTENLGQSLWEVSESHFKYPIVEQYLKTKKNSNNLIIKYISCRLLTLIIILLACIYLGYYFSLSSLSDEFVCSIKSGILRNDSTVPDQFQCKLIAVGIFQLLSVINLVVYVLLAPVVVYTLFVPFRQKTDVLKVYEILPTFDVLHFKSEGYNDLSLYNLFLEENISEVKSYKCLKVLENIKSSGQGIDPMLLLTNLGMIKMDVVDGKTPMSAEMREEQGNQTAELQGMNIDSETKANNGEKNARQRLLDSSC

With `CCOc1ccc(Nc2ccc(/C(=C3C=C/C(=[N+](/CC)Cc4cccc(S(=O)(=O)[O-])c4)C=C/3C)c3ccc(N(CC)Cc4cccc(S(=O)(=O)[O-])c4)cc3C)cc2)cc1.[Na+]` [BBG, brilliant blue G], in data set [1] (rat model of traumatic spinal cord injury, reference 75), the “recovery after spinal cord injury” value was “recovery of motor function and limited inflammation following spinal cord injury”. Moreover, in data set [1] (rat, in vivo), the toxicity in vivo result is listed as “without any toxicity”. Besides, the “inhibition of viral replication relative to cultures infected with HIV only” value in the data set on HIV (macrophage cultures, BBG concentration and strain not printed at the place) is listed as 54-90%. Further, the “cell viability (live/dead assay)” value in the data set with Macrophages is reported as “None of the antagonist caused any decrease in cell viability”.

As to “FADRYWAQVS (scrambled peptide) [scrPanx1]”, the “gp120-induced Etd uptake, in presence of blockers” value with Panx1 hemichannels [2] is recorded as “No effects”. The “Etd uptake (rate) induced by the virus” value with Panx1 hemichannels [3] was “did not affect”. Besides, the “HIV replication (HIV-p24 release into the media)” value in the data set on HIVADA is listed as “did not alter”.

As for “WRQAAFVDSY (Panx1 mimetic blocking peptide) [10Panx1]”, the “gp120-induced Etd uptake, in presence of blockers” value in the data set with Panx1 hemichannels [2] was “inhibited”. In the data set with Panx1 hemichannels [3], the “Etd uptake (rate) induced by the virus” value is “completely blocked; also recorded: completely reduced”. Besides, the “HIV replication (HIV-p24 release into the media)” value in the data set on HIVADA is “abolished HIV replication to almost control undetectable levels; also recorded: dramatically reduced”. Besides, the “Etd uptake induced by the virus, analyzed by FACS” value in the data set with Panx1 hemichannels [4] is “reduced Etd uptake; also recorded: reduced to control conditions (100%)”.

Take apyrase: the “reduction in HIV replication in macrophages” value in the data set on HIV (apyrase data, concentration not given) was “no reduction”. The “reduction in HIV entry in macrophages” value in data set [5] is on record as “no reduction”.
